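Values below derive from 48-hour exposures of cells grown in 96-well plates, with endpoints linearly interpolated between the two concentrations bracketing the appropriate inhibition level. Here, GI50 denotes the concentration required for 50% inhibition of growth. TGI: total growth inhibition.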
Columns and labels:
Assay in all cases: NCI anticancer screen, dose series, 48 h
MCF7 breast = tested on: MCF7 breast
IGROV1 ovarian = tested on: IGROV1 ovarian
UACC-62 melanoma = tested on: UACC-62 melanoma
UACC-257 melanoma = tested on: UACC-257 melanoma
NCI-H23 lung = tested on: NCI-H23 lung
NCI-H226 lung = tested on: NCI-H226 lung
HCT-15 colon = tested on: HCT-15 colon
MDA-MB-435 = tested on: MDA-MB-435
HS 578T breast = tested on: HS 578T breast
PC-3 prostate = tested on: PC-3 prostate
A549 NSCLC = tested on: A549 NSCLC
SK-MEL-5 melanoma = tested on: SK-MEL-5 melanoma
EKVX NSCLC = tested on: EKVX NSCLC
CAKI-1 renal = tested on: CAKI-1 renal
DU-145 prostate = tested on: DU-145 prostate
OVCAR-8 ovarian = tested on: OVCAR-8 ovarian
SF-268 CNS = tested on: SF-268 CNS
786-0 renal = tested on: 786-0 renal
NCI-H522 lung = tested on: NCI-H522 lung
OVCAR-4 ovarian = tested on: OVCAR-4 ovarian
KM12 colon = tested on: KM12 colon
NCI/ADR-RES ovarian = tested on: NCI/ADR-RES ovarian
SN12C renal = tested on: SN12C renal
TK-10 renal = tested on: TK-10 renal
BT-549 breast = tested on: BT-549 breast
SW-620 colon = tested on: SW-620 colon
HCT-116 colon = tested on: HCT-116 colon
RXF 393 renal = tested on: RXF 393 renal
MALME-3M melanoma = tested on: MALME-3M melanoma
ACHN renal = tested on: ACHN renal
HT29 colon = tested on: HT29 colon
CCRF-CEM leukemia = tested on: CCRF-CEM leukemia
HOP-62 NSCLC = tested on: HOP-62 NSCLC
UO-31 renal = tested on: UO-31 renal
RPMI-8226 leukemia = tested on: RPMI-8226 leukemia
SK-OV-3 ovarian = tested on: SK-OV-3 ovarian
SNB-75 CNS = tested on: SNB-75 CNS
SK-MEL-28 melanoma = tested on: SK-MEL-28 melanoma
T-47D breast = tested on: T-47D breast
SF-539 CNS = tested on: SF-539 CNS
M14 melanoma = tested on: M14 melanoma
U251 CNS = tested on: U251 CNS
MOLT-4 leukemia = tested on: MOLT-4 leukemia
MDA-MB-231 breast = tested on: MDA-MB-231 breast
OVCAR-5 ovarian = tested on: OVCAR-5 ovarian
SK-MEL-2 melanoma = tested on: SK-MEL-2 melanoma
NCI-H460 lung = tested on: NCI-H460 lung
A498 renal = tested on: A498 renal
LOX IMVI melanoma = tested on: LOX IMVI melanoma
OVCAR-3 ovarian = tested on: OVCAR-3 ovarian
HOP-92 NSCLC = tested on: HOP-92 NSCLC
HL-60(TB) leukemia = tested on: HL-60(TB) leukemia
HCC-2998 colon = tested on: HCC-2998 colon
SR leukemia = tested on: SR leukemia
COLO 205 colon = tested on: COLO 205 colon
K-562 leukemia = tested on: K-562 leukemia
SF-295 CNS = tested on: SF-295 CNS
SNB-19 CNS = tested on: SNB-19 CNS

`COc1ccc(/C=C\c2cc(OC)c(OC)c(OC)c2)cc1OC(=O)c1cccc(Cn2cc(CCOC(=O)c3cccc(Cn4nnc5c4C(=O)c4ccccc4C5=O)c3)nn2)c1` was tested, and the GI50 (MCF7 breast) was 21.6 nM, the TGI (MCF7 breast) was greater than 70500 nM and the GI50 (IGROV1 ovarian) was 25.2 nM. It also gave a TGI (IGROV1 ovarian) of 26400 nM, a TGI (UACC-62 melanoma) of 24800 nM and a GI50 (UACC-257 melanoma) of 22900 nM. It also gave a TGI (UACC-257 melanoma) greater than 100000 nM, a GI50 (NCI-H23 lung) of less than 10 nM and a TGI (NCI-H23 lung) of 18300 nM. For the same compound, the GI50 (NCI-H226 lung) was 150 nM, the TGI (NCI-H226 lung) was greater than 37100 nM and the GI50 (HCT-15 colon) was less than 10 nM. The TGI (HCT-15 colon) was greater than 100000 nM, the GI50 (MDA-MB-435) was less than 10 nM and the GI50 (HS 578T breast) was less than 10 nM. The TGI (HS 578T breast) was 21400 nM, the GI50 (PC-3 prostate) was less than 10 nM and the TGI (PC-3 prostate) was greater than 100000 nM. The GI50 (A549 NSCLC) was 39.2 nM, the TGI (A549 NSCLC) was greater than 37900 nM and the GI50 (SK-MEL-5 melanoma) was less than 10 nM. The TGI (SK-MEL-5 melanoma) was 47.4 nM, the GI50 (EKVX NSCLC) was 62 nM and the TGI (EKVX NSCLC) was greater than 100000 nM. For the same compound, the GI50 (CAKI-1 renal) was 45.9 nM, the TGI (CAKI-1 renal) was 20100 nM and the GI50 (DU-145 prostate) was less than 10 nM. The GI50 (OVCAR-8 ovarian) was less than 10 nM, the TGI (OVCAR-8 ovarian) was greater than 44800 nM and the GI50 (SF-268 CNS) was 39.5 nM. The TGI (SF-268 CNS) was 35000 nM, the GI50 (786-0 renal) was 101 nM and the TGI (786-0 renal) was 17500 nM. For the same compound, the GI50 (NCI-H522 lung) was 10.2 nM, the GI50 (OVCAR-4 ovarian) was 40.3 nM and the TGI (OVCAR-4 ovarian) was greater than 100000 nM. The GI50 (KM12 colon) was less than 13.3 nM, the TGI (KM12 colon) was greater than 77600 nM and the GI50 (NCI/ADR-RES ovarian) was less than 10 nM. The TGI (NCI/ADR-RES ovarian) was 421 nM, the GI50 (SN12C renal) was less than 17.3 nM and the TGI (SN12C renal) was greater than 100000 nM. For the same compound, the GI50 (TK-10 renal) was 9580 nM, the TGI (TK-10 renal) was 33500 nM and the GI50 (BT-549 breast) was less than 10 nM. It also gave a TGI (BT-549 breast) of 1350 nM, a GI50 (SW-620 colon) of less than 10 nM and a TGI (SW-620 colon) greater than 100000 nM. The GI50 (HCT-116 colon) was less than 10 nM, the TGI (HCT-116 colon) was greater than 33200 nM and the GI50 (RXF 393 renal) was less than 10 nM. The TGI (RXF 393 renal) was 13600 nM, the GI50 (MALME-3M melanoma) was 178 nM and the TGI (MALME-3M melanoma) was greater than 71300 nM. The GI50 (ACHN renal) was 15.3 nM, the TGI (ACHN renal) was greater than 84500 nM and the GI50 (HT29 colon) was 321 nM. It also gave a GI50 (CCRF-CEM leukemia) of less than 10 nM, a TGI (CCRF-CEM leukemia) greater than 100000 nM and a GI50 (HOP-62 NSCLC) of 38.1 nM. The TGI (HOP-62 NSCLC) was 27000 nM, the GI50 (UO-31 renal) was 160 nM and the TGI (UO-31 renal) was 79500 nM. For the same compound, the GI50 (RPMI-8226 leukemia) was less than 10 nM, the TGI (RPMI-8226 leukemia) was greater than 100000 nM and the GI50 (SK-OV-3 ovarian) was 2730 nM. For the same compound, the TGI (SK-OV-3 ovarian) was 46700 nM, the GI50 (SNB-75 CNS) was less than 10 nM and the TGI (SNB-75 CNS) was 22100 nM. It also gave a GI50 (SK-MEL-28 melanoma) of 11700 nM, a TGI (SK-MEL-28 melanoma) greater than 75700 nM and a GI50 (T-47D breast) of 51600 nM. The TGI (T-47D breast) was greater than 100000 nM, the GI50 (SF-539 CNS) was less than 10 nM and the TGI (SF-539 CNS) was 134 nM. It also gave a GI50 (M14 melanoma) of less than 10 nM, a TGI (M14 melanoma) of 10900 nM and a GI50 (U251 CNS) of less than 10 nM. The TGI (U251 CNS) was greater than 100000 nM, the GI50 (MOLT-4 leukemia) was 12.9 nM and the TGI (MOLT-4 leukemia) was greater than 100000 nM. It also gave a GI50 (MDA-MB-231 breast) of less than 10 nM, a TGI (MDA-MB-231 breast) of 16300 nM and a GI50 (OVCAR-5 ovarian) of 54.2 nM. It also gave a TGI (OVCAR-5 ovarian) greater than 100000 nM, a TGI (SK-MEL-2 melanoma) of 33100 nM and a GI50 (NCI-H460 lung) of less than 10 nM. It also gave a TGI (NCI-H460 lung) of 12600 nM, a GI50 (A498 renal) of less than 10 nM and a GI50 (LOX IMVI melanoma) of 14.9 nM. The TGI (LOX IMVI melanoma) was greater than 100000 nM, the GI50 (OVCAR-3 ovarian) was less than 10 nM and the GI50 (HOP-92 NSCLC) was 464 nM. For the same compound, the TGI (HOP-92 NSCLC) was 33700 nM, the GI50 (HL-60(TB) leukemia) was less than 10 nM and the TGI (HL-60(TB) leukemia) was 12.5 nM. The GI50 (HCC-2998 colon) was 36.2 nM, the TGI (HCC-2998 colon) was greater than 47800 nM and the GI50 (SR leukemia) was less than 10 nM. The TGI (SR leukemia) was greater than 100000 nM, the GI50 (COLO 205 colon) was 344 nM and the GI50 (K-562 leukemia) was less than 10 nM. The TGI (K-562 leukemia) was greater than 100000 nM, the GI50 (SF-295 CNS) was 31.6 nM and the TGI (SF-295 CNS) was 4360 nM. The TGI (SNB-19 CNS) was 30600 nM.
